Measured values taken from patent US7741253B2, “Methods and compositions for crosslinking polymers with boronic acids” (Halliburton Energy Services, Inc., priority 2004, dated 2010).
One block for each compound: values may come before it.

Experiment: pH titration (method of Wiskur et al.)
Assay type: physicochemical
Protocol: The exemplary boronic acid crosslinking agent prepared as described above was compared to 1,4-phenylene diboronic acid and boric acid using a pH titration that was performed according to the method of S. L. Wiskur, et al., Org.

pH (NaOH 0 μL): 3.32
pH (NaOH 1 μL): 3.47
pH (NaOH 2 μL): 3.67
pH (NaOH 3 μL): 4.07
pH (NaOH 4 μL): 5.66
pH (NaOH 5 μL): 6.6
pH (NaOH 6 μL): 6.97
pH (NaOH 7 μL): 7.18
pH (NaOH 8 μL): 7.33
pH (NaOH 9 μL): 7.44
pH (NaOH 10 μL): 7.53
pH (NaOH 11 μL): 7.62
pH (NaOH 12 μL): 7.69
pH (NaOH 13 μL): 7.76
pH (NaOH 14 μL): 7.82
pH (NaOH 15 μL): 7.88
pH (NaOH 16 μL): 7.94
pH (NaOH 17 μL): 8
pH (NaOH 18 μL): 8.05
pH (NaOH 19 μL): 8.11
pH (NaOH 20 μL): 8.17
pH (NaOH 21 μL): 8.21
pH (NaOH 22 μL): 8.25
pH (NaOH 23 μL): 8.39
pH (NaOH 24 μL): 8.46
pH (NaOH 25 μL): 8.51
pH (NaOH 26 μL): 8.57
pH (NaOH 27 μL): 8.64
pH (NaOH 28 μL): 8.7
pH (NaOH 29 μL): 8.76
pH (NaOH 30 μL): 8.82
pH (NaOH 31 μL): 8.96
pH (NaOH 32 μL): 9.02
pH (NaOH 33 μL): 9.09
pH (NaOH 34 μL): 9.15
pH (NaOH 35 μL): 9.21
pH (NaOH 36 μL): 9.26
pH (NaOH 37 μL): 9.32
pH (NaOH 38 μL): 9.38
pH (NaOH 39 μL): 9.43
pH (NaOH 40 μL): 9.47
pH (NaOH 41 μL): 9.51
pH (NaOH 42 μL): 9.56
pH (NaOH 43 μL): 9.6
pH (NaOH 44 μL): 9.64
pH (NaOH 45 μL): 9.68
pH (NaOH 46 μL): 9.71
pH (NaOH 47 μL): 9.75
pH (NaOH 48 μL): 9.79
pH (NaOH 49 μL): 9.82
pH (NaOH 50 μL): 9.86
pH (NaOH 51 μL): 9.89
pH (NaOH 52 μL): 9.93
pH (NaOH 53 μL): 9.96
pH (NaOH 54 μL): 10
pH (NaOH 55 μL): 10.03
pH (NaOH 56 μL): 10.06
pH (NaOH 57 μL): 10.1
pH (NaOH 58 μL): 10.13
pH (NaOH 59 μL): 10.16
pH (NaOH 60 μL): 10.19
pH (NaOH 61 μL): 10.23
pH (NaOH 62 μL): 10.26
pH (NaOH 63 μL): 10.28
pH (NaOH 64 μL): 10.3
pH (NaOH 65 μL): 10.33
pH (NaOH 66 μL): 10.33
pH (NaOH 67 μL): 10.37
pH (NaOH 68 μL): 10.39
pH (NaOH 69 μL): 10.42
pH (NaOH 70 μL): 10.44
pH (NaOH 71 μL): 10.47
pH (NaOH 72 μL): 10.49
pH (NaOH 73 μL): 10.49
pH (NaOH 74 μL): 10.53
pH (NaOH 75 μL): 10.55
pH (NaOH 76 μL): 10.55
pH (NaOH 77 μL): 10.57
Compound: OB(O)c1ccc(B(O)O)cc1 [1,4-phenylene diboronic acid]

pH (NaOH 0 μL): 3.03
pH (NaOH 1 μL): 3.13
pH (NaOH 2 μL): 3.25
pH (NaOH 3 μL): 3.4
pH (NaOH 4 μL): 3.64
pH (NaOH 5 μL): 4.06
pH (NaOH 6 μL): 6.08
pH (NaOH 7 μL): 7.58
pH (NaOH 8 μL): 7.91
pH (NaOH 9 μL): 8.11
pH (NaOH 10 μL): 8.26
pH (NaOH 11 μL): 8.39
pH (NaOH 12 μL): 8.49
pH (NaOH 13 μL): 8.59
pH (NaOH 14 μL): 8.67
pH (NaOH 15 μL): 8.74
pH (NaOH 16 μL): 8.82
pH (NaOH 17 μL): 8.89
pH (NaOH 18 μL): 8.96
pH (NaOH 19 μL): 9.03
pH (NaOH 20 μL): 9.1
pH (NaOH 21 μL): 9.17
pH (NaOH 22 μL): 9.25
pH (NaOH 23 μL): 9.31
pH (NaOH 24 μL): 9.38
pH (NaOH 25 μL): 9.47
pH (NaOH 26 μL): 9.55
pH (NaOH 27 μL): 9.65
pH (NaOH 28 μL): 9.74
pH (NaOH 29 μL): 9.85
pH (NaOH 30 μL): 9.95
pH (NaOH 31 μL): 10.05
pH (NaOH 32 μL): 10.13
pH (NaOH 33 μL): 10.22
pH (NaOH 34 μL): 10.29
pH (NaOH 35 μL): 10.35
pH (NaOH 36 μL): 10.4
pH (NaOH 37 μL): 10.45
pH (NaOH 38 μL): 10.49
pH (NaOH 39 μL): 10.53
pH (NaOH 40 μL): 10.56
pH (NaOH 41 μL): 10.59
pH (NaOH 42 μL): 10.62
pH (NaOH 43 μL): 10.65
pH (NaOH 44 μL): 10.68
pH (NaOH 45 μL): 10.7
pH (NaOH 46 μL): 10.71
pH (NaOH 47 μL): 10.75
pH (NaOH 48 μL): 10.77
pH (NaOH 49 μL): 10.78
pH (NaOH 50 μL): 10.78
pH (NaOH 51 μL): 10.81
pH (NaOH 52 μL): 10.82
pH (NaOH 53 μL): 10.82
pH (NaOH 54 μL): 10.85
pH (NaOH 55 μL): 10.85
pH (NaOH 56 μL): 10.87
pH (NaOH 57 μL): 10.87
pH (NaOH 58 μL): 10.89
pH (NaOH 59 μL): 10.89
pH (NaOH 60 μL): 10.91
pH (NaOH 61 μL): 10.92
pH (NaOH 62 μL): 10.92
pH (NaOH 63 μL): 10.92
pH (NaOH 64 μL): 10.95
pH (NaOH 65 μL): 10.95
pH (NaOH 66 μL): 10.95
pH (NaOH 67 μL): 10.97
pH (NaOH 68 μL): 10.97
pH (NaOH 69 μL): 11
pH (NaOH 70 μL): 11
pH (NaOH 71 μL): 11
pH (NaOH 72 μL): 11
pH (NaOH 73 μL): 11
pH (NaOH 74 μL): 11
pH (NaOH 75 μL): 11.03
pH (NaOH 76 μL): 11.03
pH (NaOH 77 μL): 11.03
Compound: OB(O)O [Boric acid]
